Reference: the supplement of paper PMC10307832

What was measured:
Experiment in all cases: relative viability (nuclei count vs DMSO), 5 days (fraction); higher = more cells survive
NCI-H838 = test system: NCI-H838
How it was run: (§1)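 Medians of duplicate plates are given as relative viability. That measure is the nuclei count in treated wells divided by the count in vehicle wells. Counts were taken on 4× images of lung cancer cell lines in 1536-well plates, 5 days after pin-tool dosing the day after seeding with one drug alone or a fixed anchor-drug dose plus five library-drug doses (not always all listed) in √10 steps.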

UMC-11 = test system: UMC-11
How it was run: as §1

HCC-15 = test system: HCC-15
How it was run: as §1

NCI-H1666 = test system: NCI-H1666
How it was run: as §1

LU99A = test system: LU99A
How it was run: as §1

LC-2-ad = test system: LC-2-ad
How it was run: as §1

SK-MES-1 = test system: SK-MES-1
How it was run: as §1

LCLC-97TM1 = test system: LCLC-97TM1
How it was run: as §1

ChaGo-K-1 = test system: ChaGo-K-1
How it was run: as §1

BEN = test system: BEN
How it was run: as §1

NCI-H661 = test system: NCI-H661
How it was run: as §1

HCC-78 = test system: HCC-78
How it was run: as §1

NCI-H596 = test system: NCI-H596
How it was run: as §1

NCI-H322M = test system: NCI-H322M
How it was run: as §1

NCI-H1651 = test system: NCI-H1651
How it was run: as §1

NCI-H650 = test system: NCI-H650
How it was run: as §1

LXF-289 = test system: LXF-289
How it was run: as §1

NCI-H2342 = test system: NCI-H2342
How it was run: as §1

NCI-H358 = test system: NCI-H358
How it was run: as §1

PC-3 [JPC-3] = test system: PC-3 [JPC-3]
How it was run: as §1

LK-2 = test system: LK-2
How it was run: as §1

NCI-H2087 = test system: NCI-H2087
How it was run: as §1

NCI-H1944 = test system: NCI-H1944
How it was run: as §1

In the case of `Oc1nc(-c2ccc(C(F)(F)F)cc2)nc2c1CSCC2` [XAV939] + COc1cccc2cc(-c3nc([C@H]4CC[C@H](C(=O)O)CC4)n4ncnc(N)c34)[nH]c12 [OSI-027] (partner 0.5 µM), the relative viability (NCI-H838; first compound 0.08 µM) is reported as 0.375, the relative viability (NCI-H838; first compound 0.253 µM) is reported as 0.371 and the relative viability (NCI-H838; first compound 0.8 µM) is reported as 0.365. The relative viability (NCI-H838; first compound 2.53 µM) was 0.301, the relative viability (UMC-11; first compound 0.08 µM) was 0.456 and the relative viability (UMC-11; first compound 0.253 µM) was 0.478. For the same compound, the relative viability (UMC-11; first compound 0.8 µM) was 0.538, the relative viability (UMC-11; first compound 2.53 µM) was 0.44 and the relative viability (HCC-15; first compound 0.08 µM) was 0.797. The relative viability (HCC-15; first compound 0.253 µM) was 0.619, the relative viability (HCC-15; first compound 0.8 µM) was 0.738 and the relative viability (HCC-15; first compound 2.53 µM) was 0.655. It also gave a relative viability (NCI-H1666; first compound 0.08 µM) of 0.883, a relative viability (NCI-H1666; first compound 0.253 µM) of 0.711 and a relative viability (NCI-H1666; first compound 0.8 µM) of 0.752. The relative viability (NCI-H1666; first compound 2.53 µM) was 0.627, the relative viability (LU99A; first compound 0.08 µM) was 0.303 and the relative viability (LU99A; first compound 0.253 µM) was 0.348. The relative viability (LU99A; first compound 0.8 µM) was 0.329, the relative viability (LU99A; first compound 2.53 µM) was 0.268 and the relative viability (LC-2-ad; first compound 0.08 µM) was 0.907. It also gave a relative viability (LC-2-ad; first compound 0.253 µM) of 0.815, a relative viability (LC-2-ad; first compound 0.8 µM) of 0.889 and a relative viability (LC-2-ad; first compound 2.53 µM) of 0.864. It also gave a relative viability (SK-MES-1; first compound 0.08 µM) of 0.576, a relative viability (SK-MES-1; first compound 0.253 µM) of 0.584 and a relative viability (SK-MES-1; first compound 0.8 µM) of 0.631. For the same compound, the relative viability (SK-MES-1; first compound 2.53 µM) was 0.424, the relative viability (LCLC-97TM1; first compound 0.08 µM) was 0.643 and the relative viability (LCLC-97TM1; first compound 0.253 µM) was 0.566. The relative viability (LCLC-97TM1; first compound 0.8 µM) was 0.545, the relative viability (LCLC-97TM1; first compound 2.53 µM) was 0.609 and the relative viability (ChaGo-K-1; first compound 0.08 µM) was 0.562. The relative viability (ChaGo-K-1; first compound 0.253 µM) was 0.534, the relative viability (ChaGo-K-1; first compound 0.8 µM) was 0.533 and the relative viability (ChaGo-K-1; first compound 2.53 µM) was 0.472. It also gave a relative viability (BEN; first compound 0.08 µM) of 0.28, a relative viability (BEN; first compound 0.253 µM) of 0.303 and a relative viability (BEN; first compound 0.8 µM) of 0.314. The relative viability (BEN; first compound 2.53 µM) was 0.309, the relative viability (NCI-H661; first compound 0.08 µM) was 0.701 and the relative viability (NCI-H661; first compound 0.253 µM) was 0.719. For the same compound, the relative viability (NCI-H661; first compound 0.8 µM) was 0.696, the relative viability (NCI-H661; first compound 2.53 µM) was 0.583 and the relative viability (HCC-78; first compound 0.08 µM) was 0.341. It also gave a relative viability (HCC-78; first compound 0.253 µM) of 0.361, a relative viability (HCC-78; first compound 0.8 µM) of 0.356 and a relative viability (HCC-78; first compound 2.53 µM) of 0.297. The relative viability (NCI-H596; first compound 0.08 µM) was 0.803, the relative viability (NCI-H596; first compound 0.253 µM) was 0.796 and the relative viability (NCI-H596; first compound 0.8 µM) was 0.768. For the same compound, the relative viability (NCI-H596; first compound 2.53 µM) was 0.622, the relative viability (NCI-H322M; first compound 0.08 µM) was 0.615 and the relative viability (NCI-H322M; first compound 0.253 µM) was 0.594. It also gave a relative viability (NCI-H322M; first compound 0.8 µM) of 0.504, a relative viability (NCI-H322M; first compound 2.53 µM) of 0.406 and a relative viability (NCI-H1651; first compound 0.08 µM) of 0.925. It also gave a relative viability (NCI-H1651; first compound 0.253 µM) of 0.711, a relative viability (NCI-H1651; first compound 0.8 µM) of 0.838 and a relative viability (NCI-H1651; first compound 2.53 µM) of 0.69. For the same compound, the relative viability (NCI-H650; first compound 0.08 µM) was 0.52, the relative viability (NCI-H650; first compound 0.253 µM) was 0.565 and the relative viability (NCI-H650; first compound 0.8 µM) was 0.493. The relative viability (NCI-H650; first compound 2.53 µM) was 0.37, the relative viability (LXF-289; first compound 0.08 µM) was 0.817 and the relative viability (LXF-289; first compound 0.253 µM) was 0.721. For the same compound, the relative viability (LXF-289; first compound 0.8 µM) was 0.746, the relative viability (LXF-289; first compound 2.53 µM) was 0.658 and the relative viability (NCI-H2342; first compound 0.08 µM) was 0.596. For the same compound, the relative viability (NCI-H2342; first compound 0.253 µM) was 0.481, the relative viability (NCI-H2342; first compound 0.8 µM) was 0.531 and the relative viability (NCI-H2342; first compound 2.53 µM) was 0.464. The relative viability (NCI-H358; first compound 0.08 µM) was 0.793, the relative viability (NCI-H358; first compound 0.253 µM) was 0.624 and the relative viability (NCI-H358; first compound 0.8 µM) was 0.785. The relative viability (NCI-H358; first compound 2.53 µM) was 0.605, the relative viability (PC-3 [JPC-3]; first compound 0.08 µM) was 0.756 and the relative viability (PC-3 [JPC-3]; first compound 0.253 µM) was 0.611. For the same compound, the relative viability (PC-3 [JPC-3]; first compound 0.8 µM) was 0.777, the relative viability (PC-3 [JPC-3]; first compound 2.53 µM) was 0.599 and the relative viability (LK-2; first compound 0.08 µM) was 0.168. It also gave a relative viability (LK-2; first compound 0.253 µM) of 0.232, a relative viability (LK-2; first compound 0.8 µM) of 0.188 and a relative viability (LK-2; first compound 2.53 µM) of 0.206. It also gave a relative viability (NCI-H2087; first compound 0.08 µM) of 0.833, a relative viability (NCI-H2087; first compound 0.253 µM) of 0.504 and a relative viability (NCI-H2087; first compound 0.8 µM) of 0.444. It also gave a relative viability (NCI-H2087; first compound 2.53 µM) of 0.46, a relative viability (NCI-H1944; first compound 0.08 µM) of 0.441 and a relative viability (NCI-H1944; first compound 0.253 µM) of 0.393. For the same compound, the relative viability (NCI-H1944; first compound 0.8 µM) was 0.403 and the relative viability (NCI-H1944; first compound 2.53 µM) was 0.367.
